Measured values as given in patent US20250230193A1, “CYCLIC COMPOUND HAVING SELECTIVE KRAS INHIBITORY EFFECT ON HRAS AND NRAS” (CHUGAI SEIYAKU KABUSHIKI KAISHA, priority 2022, published 2025).
Where a SMILES comes first, the peptide text is derived from it. Bridges are numbered along the chain shown (N, C = ends). [ ]: non-standard residue; d: D form. The star is where a group is joined. hPhe(3-Cl-4-CF3) = N[C@@H](CCc1ccc(C(F)(F)F)c(Cl)c1)C(=O)O; NPrPhe(4-CF3) = CCCN[C@@H](Cc1ccc(C(F)(F)F)cc1)C(=O)O; NMeGly(cPent) = CN[C@H](C(=O)O)C1CCCC1; NMeD = CN[C@@H](CC(=O)O)C(=O)O; NMeL = CN[C@@H](CC(C)C)C(=O)O; Morpholide = C1CN(*)CCO1; Aze = O=C(O)[C@@H]1CCN1; Ac4c = NC1(C(=O)O)CCC1; Sar = CNCC(=O)O

Legend:
[1] = molecular target: GDP-bound NRAS wild-type protein (Homo sapiens, UniProt P01111); experiment: Binding to NRAS by surface plasmon resonance (SPR), Single Cycle Kinetics; conditions: SPR
[2] = molecular target: GDP-bound HRAS wild-type protein (Homo sapiens, UniProt P01112); experiment: Binding to HRAS by surface plasmon resonance (SPR), Single Cycle Kinetics; conditions: SPR
[3] = KD ratio, GDP-bound NRAS wild-type vs GDP-bound KRAS wild-type
[4] = KD ratio, GDP-bound HRAS wild-type vs GDP-bound KRAS wild-type

Sequence of GDP-bound NRAS wild-type protein (P01111 whole entry): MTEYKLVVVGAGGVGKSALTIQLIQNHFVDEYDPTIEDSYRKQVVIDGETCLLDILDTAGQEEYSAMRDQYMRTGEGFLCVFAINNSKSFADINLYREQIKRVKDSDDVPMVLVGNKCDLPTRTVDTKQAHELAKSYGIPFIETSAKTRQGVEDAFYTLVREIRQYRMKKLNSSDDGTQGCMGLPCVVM
Sequence of GDP-bound HRAS wild-type protein (P01112 whole entry): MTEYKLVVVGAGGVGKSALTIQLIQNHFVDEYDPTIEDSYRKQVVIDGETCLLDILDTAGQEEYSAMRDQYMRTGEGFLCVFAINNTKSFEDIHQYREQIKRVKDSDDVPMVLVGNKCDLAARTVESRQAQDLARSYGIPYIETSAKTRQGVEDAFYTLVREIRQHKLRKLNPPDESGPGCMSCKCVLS

Structure (SMILES) | NRAS/KRAS (ratio of KD value with respect to NRAS to KD value with respect to KRAS) [1, 3] | HRAS/KRAS (ratio of KD value with respect to HRAS to KD value with respect to KRAS) [2, 4] | also measured
CCO[C@@H]1C[C@H]2C(=O)NC3(CCC3)C(=O)N(C)[C@@H](C3CCCCC3)C(=O)N(C)[C@H](C(=O)N(C)C)CC(=O)N(C)[C@@H](CC)C(=O)N[C@@H]([C@@H](C)CC)C(=O)N(C)CC(=O)N(C)[C@H]3C/C=C\CCN(C3=O)[C@@H](Cc3ccc(C(F)(F)F)cc3)C(=O)N(C)CC(=O)N[C@@H](CCc3cc(F)c(C(F)(F)F)c(F)c3)C(=O)N2C1 [PP1086] | AA (a compound having 20 or more is denoted as AA) | A (a compound having 10 or more and less than 20 is denoted as A) | –
CCCN1C(=O)CN(C)C(=O)[C@@H]2CCN2C(=O)[C@H]([C@@H](C)CC)NC(=O)[C@H](CC(C)C)N(C)C(=O)C[C@@H](C(=O)N2CCOCC2)N(C)C(=O)[C@H](C2CCCC2)N(C)C(=O)C2(CCC2)NC(=O)[C@@H]2CCCN2C(=O)[C@H](CCc2ccc(C(F)(F)F)c(Cl)c2)NC(=O)CN(C)C(=O)[C@@H]1Cc1ccc(C(F)(F)F)cc1 [PP0402] ([NMeL]I[Aze][Sar][NPrPhe(4-CF3)][Sar][hPhe(3-Cl-4-CF3)]P[Ac4c][NMeGly(cPent)][NMeD]-Morpholide; lactam N-11) | – | – | NRAS/KRAS (ratio of KD for GDP-bound NRAS wild-type to KD for KRAS) ([1]; KD ratio NRAS/KRAS): B (a compound having 3 or more and less than 10 is denoted as B); HRAS/KRAS (ratio of KD for GDP-bound HRAS wild-type to KD for KRAS) ([2]; KD ratio HRAS/KRAS): C (A compound having a KD ratio of 0.1 or more and less than 3 is denoted as C)
CCCN1C(=O)[C@H](C2CCCC2)N(C)C(=O)C2(CCC2)NC(=O)[C@@H]2C[C@@H](OCC)CN2C(=O)[C@H](CCc2cc(F)c(C(F)(F)F)c(F)c2)NC(=O)CN(C)C(=O)[C@H](Cc2ccc(C(F)(F)F)cc2)N2CCCC[C@@H](C2=O)N(C)C(=O)CN(C)C(=O)[C@H]([C@@H](C)CC)NC(=O)[C@H](CC(C)C)N(C)C(=O)C[C@H]1C(=O)N1CCOCC1 [PP0649] | – | – | NRAS/KRAS (ratio of KD value with respect to GDP-bound NRAS wild-type protein to KD value with respect to KRAS) ([1]; KD ratio NRAS/KRAS): C (A compound having a KD ratio of 0.1 or more and less than 3 is denoted as C); HRAS/KRAS (ratio of KD value with respect to GDP-bound HRAS wild-type protein to KD value with respect to KRAS) ([2]; KD ratio HRAS/KRAS): B (a compound having 3 or more and less than 10 is denoted as B)
CC[C@H](C)[C@@H]1NC(=O)[C@H](CC(C)C)N(C)C(=O)C[C@@H](C(=O)N2CCOCC2)N(C)C(=O)[C@H](C2CCCC2)N(C)C(=O)C2(CCC2)NC(=O)[C@@H]2[C@@H](OC)CCN2C(=O)[C@H](CCc2cc(F)c(C(F)(F)F)c(F)c2)NC(=O)CN(C)C(=O)[C@H](Cc2ccc(C(F)(F)F)cc2)N2CCCC[C@@H](C2=O)N(C)C(=O)CN(C)C1=O [PP1075] | B (a compound having 3 or more and less than 10 is denoted as B) | B (a compound having 3 or more and less than 10 is denoted as B) | –
CCO[C@@H]1C[C@H]2C(=O)NC3(CCC3)C(=O)N(C)[C@@H](C3CCCC3)C(=O)N(C)[C@H](C(=O)N3CCOCC3)CC(=O)N(C)[C@@H](Cc3ccc(C#N)cc3)C(=O)N[C@@H]([C@@H](C)CC)C(=O)N(C)CC(=O)N(C)[C@H]3CCCCCN(C3=O)[C@@H](Cc3ccc(C(F)(F)F)cc3)C(=O)N(C)CC(=O)N[C@@H](CCc3cc(F)c(C(F)(F)F)c(F)c3)C(=O)N2C1 [PP1167] | B (a compound having 3 or more and less than 10 is denoted as B) | B (a compound having 3 or more and less than 10 is denoted as B) | –
CCO[C@@H]1C[C@H]2C(=O)NC3(CCC3)C(=O)N(C)[C@@H](C3CCCC3)C(=O)N(C)[C@H](C(=O)N(C)C)CC(=O)N(C)[C@@H](CC)C(=O)N[C@@H]([C@@H](C)CC)C(=O)N(C)CC(=O)N(C)[C@H]3CCCCCN(C3=O)[C@@H](Cc3ccc(F)cc3C)C(=O)N(C)CC(=O)N[C@@H](CCc3cc(F)c(C(F)(F)F)c(F)c3)C(=O)N2C1 [PP0911] | B (a compound having 3 or more and less than 10 is denoted as B) | B (a compound having 3 or more and less than 10 is denoted as B) | –
CCO[C@@H]1C[C@H]2C(=O)NC3(CC(C)(C)C3)C(=O)N(C)[C@@H](C3CCCC3)C(=O)N(C)[C@H](C(=O)N(C)CC)CC(=O)N(C)[C@@H](CC3CC3)C(=O)N[C@@H]([C@@H](C)CC)C(=O)N(C)CC(=O)N(C)[C@H]3C/C=C\CCN(C3=O)[C@@H](Cc3ccc(C(F)(F)F)cc3)C(=O)N(C)CC(=O)N[C@@H](CCc3cc(F)c(C(F)(F)F)c(F)c3)C(=O)N2C1 [PP1648] | – | – | NRAS/KRAS (ratio of KD value for NRAS to KD value for KRAS) [1, 3]: A (a compound having 10 or more and less than 20 is denoted as A); HRAS/KRAS (ratio of KD value for HRAS to KD value for KRAS) [2, 4]: A (a compound having 10 or more and less than 20 is denoted as A)
